The values that follow are results of earlier work, collected in patent US20250215008A1, “PREPARATION AND USE OF QUINAZOLINONE DERIVATIVE AS KINASE INHIBITOR” (Haisco Pharmaceutical Group Co., Ltd., priority 2022, published 2025).

Molecules are shown by their SMILES.

The target of one data set is BCRP (Homo sapiens (Human), UniProt Q9UNQ0). Conditions: cited from earlier work.
The target of a further data set is MDR1 (Homo sapiens (Human), UniProt P08183). Conditions: cited from earlier work.
The conditions of data set [1]: in vivo; cited from earlier work.

Sequence of BCRP (Q9UNQ0 whole entry, species assumed): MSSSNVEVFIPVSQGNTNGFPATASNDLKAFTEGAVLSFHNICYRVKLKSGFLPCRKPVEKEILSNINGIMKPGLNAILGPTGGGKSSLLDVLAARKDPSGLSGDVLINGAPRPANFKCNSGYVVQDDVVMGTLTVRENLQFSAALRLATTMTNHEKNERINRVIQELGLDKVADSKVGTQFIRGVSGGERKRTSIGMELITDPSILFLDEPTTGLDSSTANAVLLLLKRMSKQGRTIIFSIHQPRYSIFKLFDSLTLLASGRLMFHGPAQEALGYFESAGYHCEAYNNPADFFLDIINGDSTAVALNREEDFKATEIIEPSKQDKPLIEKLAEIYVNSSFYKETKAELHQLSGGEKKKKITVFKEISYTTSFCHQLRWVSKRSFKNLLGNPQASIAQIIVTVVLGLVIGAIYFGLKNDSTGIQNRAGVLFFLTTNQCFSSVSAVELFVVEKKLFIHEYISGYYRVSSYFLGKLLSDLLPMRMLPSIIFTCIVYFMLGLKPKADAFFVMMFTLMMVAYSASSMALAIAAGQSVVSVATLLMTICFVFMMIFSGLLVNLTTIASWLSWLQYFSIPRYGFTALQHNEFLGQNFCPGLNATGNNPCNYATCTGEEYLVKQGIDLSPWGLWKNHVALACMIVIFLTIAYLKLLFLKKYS
Sequence of MDR1 (P08183 whole entry, species assumed): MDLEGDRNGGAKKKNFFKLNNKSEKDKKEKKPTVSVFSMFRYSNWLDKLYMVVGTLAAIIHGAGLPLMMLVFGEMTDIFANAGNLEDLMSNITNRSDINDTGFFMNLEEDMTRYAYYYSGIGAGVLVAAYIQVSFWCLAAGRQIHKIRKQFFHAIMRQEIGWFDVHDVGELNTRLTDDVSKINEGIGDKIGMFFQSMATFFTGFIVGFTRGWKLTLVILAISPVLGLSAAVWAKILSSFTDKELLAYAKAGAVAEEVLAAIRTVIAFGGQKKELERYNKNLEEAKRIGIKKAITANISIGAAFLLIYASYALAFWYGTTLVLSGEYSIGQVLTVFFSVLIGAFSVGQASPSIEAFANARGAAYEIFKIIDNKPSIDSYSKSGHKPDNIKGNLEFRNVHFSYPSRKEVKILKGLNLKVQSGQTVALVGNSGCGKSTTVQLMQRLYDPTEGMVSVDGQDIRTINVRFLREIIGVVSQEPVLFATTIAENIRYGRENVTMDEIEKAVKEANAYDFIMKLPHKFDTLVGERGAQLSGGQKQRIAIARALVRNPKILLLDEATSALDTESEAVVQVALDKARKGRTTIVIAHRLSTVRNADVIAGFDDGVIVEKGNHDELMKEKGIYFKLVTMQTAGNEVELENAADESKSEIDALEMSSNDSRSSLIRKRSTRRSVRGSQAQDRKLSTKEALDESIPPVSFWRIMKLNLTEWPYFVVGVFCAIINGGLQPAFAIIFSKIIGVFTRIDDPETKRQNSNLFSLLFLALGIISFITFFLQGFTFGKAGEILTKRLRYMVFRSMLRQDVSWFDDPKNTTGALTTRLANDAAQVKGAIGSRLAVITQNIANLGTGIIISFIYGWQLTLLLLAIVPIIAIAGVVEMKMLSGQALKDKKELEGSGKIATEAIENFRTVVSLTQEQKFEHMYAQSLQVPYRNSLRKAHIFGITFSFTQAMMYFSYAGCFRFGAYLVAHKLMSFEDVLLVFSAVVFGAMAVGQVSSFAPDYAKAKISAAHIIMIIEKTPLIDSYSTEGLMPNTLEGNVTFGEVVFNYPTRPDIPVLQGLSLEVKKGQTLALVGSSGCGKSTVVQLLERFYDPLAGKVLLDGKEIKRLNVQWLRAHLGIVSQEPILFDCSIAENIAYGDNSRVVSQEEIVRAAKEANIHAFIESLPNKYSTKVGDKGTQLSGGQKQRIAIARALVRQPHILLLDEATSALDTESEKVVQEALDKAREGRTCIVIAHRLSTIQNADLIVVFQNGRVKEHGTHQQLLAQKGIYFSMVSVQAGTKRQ

Take `CCCS(=O)(=O)Nc1ccc(F)c(C(=O)c2c[nH]c3ncc(-c4ccc(Cl)cc4)cc23)c1F` [Vemurafenib]: at BCRP, the BCRP efflux ratio was 495. On MDR1, the MDR1 efflux ratio is 83. Besides, the total brain-to-plasma ratio in data set [1] is given as 0.004.
